Results from ChEMBL document CHEMBL1201862, “PubChem BioAssay data set” (2004).
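Following 48 hours of exposure in 96-well plates, responses at five concentrations were used to interpolate endpoints linearly. GI50 = concentration required for 50% inhibition of growth.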 Active and inactive are the calls of the source. Rule as the data show it: active = GI50 up to about 1.1 µM and inactive = higher.

Assays:
Experiment in all cases: inhibition of tumour cell growth, NCI panel, 48 h
SW-620 = test system: SW-620
MDA-MB-435 = test system: MDA-MB-435
786-0 = test system: 786-0
SK-MEL-28 = test system: SK-MEL-28
SK-OV-3 = test system: SK-OV-3
IGROV-1 = test system: IGROV-1
NCI-H23 = test system: NCI-H23
NCI-H460 = test system: NCI-H460
RPMI-8226 = test system: RPMI-8226
BT-549 = test system: BT-549
A498 = test system: A498
HCT-15 = test system: HCT-15
SF-268 = test system: SF-268
OVCAR-4 = test system: OVCAR-4
LOX IMVI = test system: LOX IMVI
NCI-H522 = test system: NCI-H522
SN12C = test system: SN12C
A549 = test system: A549
DU-145 = test system: DU-145
UACC-62 = test system: UACC-62

Row | SMILES | GI50 (SW-620) | GI50 (MDA-MB-435) | GI50 (786-0) | GI50 (SK-MEL-28) | GI50 (SK-OV-3) | GI50 (IGROV-1) | GI50 (NCI-H23) | GI50 (NCI-H460) | GI50 (RPMI-8226) | GI50 (BT-549) | GI50 (A498) | GI50 (HCT-15) | GI50 (SF-268) | GI50 (OVCAR-4) | GI50 (LOX IMVI) | GI50 (NCI-H522) | GI50 (SN12C) | GI50 (A549) | GI50 (DU-145) | GI50 (UACC-62)
1 | Cc1cccc(/C=N/NC(=S)NCCc2ccccn2)n1 | 42.5 µM (inactive) | 27.4 µM (inactive) | 23.3 µM (inactive) | 56.1 µM (inactive) | 14.1 µM (inactive) | 20.1 µM (inactive) | 26.6 µM (inactive) | 14.9 µM (inactive) | > 53.2 µM (inactive) | 35.2 µM (inactive) | 34 µM (inactive) | 26.5 µM | 19.6 µM (inactive) | 42.2 µM (inactive) | 18.3 µM (inactive) | 34.8 µM (inactive) | 29.9 µM (inactive) | 36.6 µM (inactive) | 22.3 µM (inactive) | 22.5 µM (inactive)
2 | O=C(/C=C/c1ccc(OCc2ccccc2)cc1)NCc1ccc(C(=O)NCc2ccccc2)cc1 | > 100 µM (inactive) | > 100 µM (inactive) | > 100 µM (inactive) | > 100 µM (inactive) | > 100 µM (inactive) | > 100 µM (inactive) | > 100 µM (inactive) | > 100 µM (inactive) | > 100 µM (inactive) | > 100 µM (inactive) | > 100 µM (inactive) | > 100 µM | > 100 µM (inactive) | > 100 µM (inactive) | > 100 µM (inactive) | > 100 µM (inactive) | > 100 µM (inactive) | > 100 µM (inactive) | > 100 µM (inactive) | > 100 µM (inactive)
3 | Cc1ccc(/C=C/C(=O)c2c([O-])on[n+]2-c2ccccc2)cc1 | 2.46 µM (inactive) | 2.3 µM (inactive) | 1.83 µM (inactive) | 2.26 µM (inactive) | 8.09 µM (inactive) | 2.73 µM (inactive) | 4.61 µM (inactive) | 2.44 µM (inactive) | 2.57 µM (inactive) | 2.72 µM (inactive) | 5.86 µM (inactive) | 1.98 µM | 4.35 µM (inactive) | 3.1 µM (inactive) | 1.88 µM (inactive) | 2.61 µM (inactive) | 3.79 µM (inactive) | 3.67 µM (inactive) | 2.74 µM (inactive) | 1.72 µM (inactive)
4 | O=C1CSC(c2cc3cc(Br)ccc3nc2Cl)N1c1ccc(Cl)cc1 (stereo not given) | 34.3 µM (inactive) | 16.8 µM (inactive) | 35.6 µM (inactive) | 33.7 µM (inactive) | 43.3 µM (inactive) | 16.8 µM (inactive) | 31.3 µM (inactive) | 16.1 µM (inactive) | 25.4 µM (inactive) | 26.8 µM (inactive) | 36 µM (inactive) | 16.8 µM | 22.2 µM (inactive) | 23.2 µM (inactive) | 16.1 µM (inactive) | 17.8 µM (inactive) | 20.2 µM (inactive) | 28.1 µM (inactive) | 34.4 µM (inactive) | 5.87 µM (inactive)
5 | C[C@@H]1O[C@@H](O[C@H]2CC[C@]3(C=O)[C@H]4CC[C@]5(C)[C@@H](C6=CC(=O)OC6)CC[C@]5(O)[C@@H]4CC[C@]3(O)C2)[C@H](O)[C@H](O)[C@H]1O [CONVALLATOXIN] | 3.93e-05 µM (active) | 4.23e-05 µM (active) | 8.79e-06 µM (active) | 6.4e-05 µM (active) | 4.37e-05 µM (active) | < 0.01 µM (active) | 9.93e-06 µM (active) | 8.47e-06 µM (active) | 4.45e-05 µM (active) | 1.32e-05 µM (active) | 5.74e-05 µM (active) | 4.69e-05 µM | 1.21e-05 µM (active) | 7.28e-06 µM (active) | 2.93e-05 µM (active) | 9.93e-06 µM (active) | 8.69e-06 µM (active) | < 0.01 µM (active) | 6.65e-06 µM (active) | 5.85e-05 µM (active)
